The results in this text go back to patent US20260144769A1, “4-PHENYLBUTYRATE RESTORED GABA UPTAKE AND REDUCED SEIZURES IN SLC6A1 VARIANT-MEDIATED DISORDERS” (Vanderbilt University, priority 2022, published 2026).

Holding throughout (type): cell-based
The test system of one assay is GAT-1. Put plainly: GAT-1 protein expression (SDS-PAGE, anti-GAT-1 blot), patient human astrocytes. The following applies: PBA 2 mM. The method, then:
FIGS. 6A-B show human patient corrected (isogenic control, Corr) or uncorrected patient (Pat) astrocytes at day 30-35 after differentiation from iPSCs were co-transfected with the endoplasmic reticulum (ER) marker ER^CFP in combination with the wildtype or the mutant GAT-1^YFP cDNAs (0.5 μg: 0.5 μg per a 35 mm^2 dish) for 48 hrs before confocal microscopy analysis. Confocal images were acquired in live astrocytes under 63× objective with zoom under 2.5×. […] FIG. 6B represents the ER overlapping signal of GAT-1^YFP analyzed by Metamorph. […] Membranes were blotted with a rabbit polyclonal anti-GAT-1 antibody (FIG. 6C). The lysates of Chinese hamster ovary (CHO) cells were used as control. […] Values were expressed as mean±S.E.M.). […]
Data were expressed as mean±SEM. Proteins were quantified by Odyssey software and data were normalized to loading controls and then to the wildtype subunit protein, which was arbitrarily taken as 1 in each experiment. Fluorescence intensities from confocal microscopy experiments were determined using MetaMorph imaging software, and the measurements were carried out in ImageJ. […]

The target in another assay is GAT-1 E16X (Rattus norvegicus, UniProt P23978). Description: 3H GABA uptake, corrected iPSC astrocytes transfected with GAT-1^YFP cDNA. Details: The coding region of rGAT-1 was inserted into pEYFP-C1 (Clontech, Palo Alto, CA); expressed in transfected cells; host or cells: human astrocytes differentiated from CRISPR-corrected patient iPSCs. The following applies: 2 mM PBA, 24 hrs. The method, then: (§1) Live images of human neural progenitor cells (NPCs), astrocytes and GABAergic inhibitory neurons differentiated from the human induced pluripotent stem cells (iPSCs) on the day of experiment. […] The DMSO treated corrected or patient cells was taken as 1. […] GABA flux was measured after 30 min transport at room temperature. The influx of GABA, expressed in pmol/μg protein/min, was averaged from duplicates for each condition and for each transfection. The average counting was DMSO treated condition taken as 1. In FIG. 5B, FIG. 5D and FIG. 5F, 966 stands for CI-966 (50 μM) and 711 stands for NNC-711 (35 μM) that was applied 30 min to the astrocytes transfected with the wildtype GAT-1^YFP before preincubation and removed during preincubation. In FIGS. 5B and D, ***p<0.001 vs. corrected DMSO treated. § § <0.01, § § § p<0.001 vs. patient DMSO treated. […] In FIGS. 5B-E, n=4-8 batches of cells. In FIG. 5F, n=4-5 different transfections). Unpaired t test was used for FIG. 5C and FIG. 5E. […] Values were expressed as mean±S.E.M.). […]
(§2) Briefly, cells were cultured in […] dishes for 3 days before the GABA uptake experiment in DMEM with 10% fetal bovine serum and 1% penicillin/streptomycin. […] Glacial acetic acid was added, and lysates were then determined on a liquid scintillator with QuantaSmart. […]

The target of a further assay is GAT-1 L460R (Rattus norvegicus, UniProt P23978, L460R). The description is as above. Details: The coding region of rGAT-1 was inserted into pEYFP-C1 (Clontech, Palo Alto, CA); expressed in transfected cells; host or cells: human astrocytes differentiated from CRISPR-corrected patient iPSCs. The following applies: 2 mM PBA, 24 hrs. The method, then: as §1, §2

As for `O=C(O)CCCc1ccccc1` [PBA, 4-phenylbutyric acid], in the assay on GAT-1 (24 hrs), the “GAT-1 expression normalized to its own genotype DMSO treated” value came out at 1.39±0.046. The “total GAT-1 protein of the patient astrocytes as % of the corrected” value in the assay with GAT-1 (24 hrs (52.2% untreated)) is 73.2%. For the same compound, the “GABA uptake normalized to its DMSO treated” value was determined as 1.182±0.025 at GAT-1 E16X and 1.18±0.045 on GAT-1 L460R.
